In patent US10538516B2, “Oxadiazole derivative and pharmaceutical containing same” (National Center for Geriatrics and Gerontology, priority 2015, dated 2020):
Read-outs that look alike come from different tables or passages of the source.

Target: T1, GAβ-dependent amyloid fibril formation (Human Aβ1-40 + GM1-containing liposome) (Homo sapiens, UniProt P05067)
T1 construct: Human Aβ1-40 (cat. #4307-v, prepared by Peptide Institute); purchased Peptide Institute 4307-v
Assay: Thioflavin T (ThT) assay of GAβ-dependent amyloid fibril formation (Aβ1-40 with GM1-containing liposome)
Type: biochemical
Method: <3. Evaluation of the Compounds Based on the Inhibitory Activity Against Amyloid Fibril Formation in Thioflabin T (ThT) Assay>
Inhibitory activity against GAβ-dependent amyloid fibril formation of the above compounds 1 to 133 and 142 to 267 were evaluated in ThT assay.
(1) Preparation of Aβ Solution
Human Aβ1-40 (cat. #4307-v, prepared by Peptide Institute) was dissolved in a 0.02% ammonia solution (400 μM), and the mixture was treated in an ultracentrifuge (S110AT rotor, Hitachi) at 100,000 rpm for 3 hours. Approximately two-thirds of the upper layer of the supernatant was recovered and protein concentration was measured. The Aβ solution was aliquoted and stored at −80° C. until use, was melted immediately before use, and was diluted to 75 μM using phosphate buffer (PBS: cat. #10010, manufactured by Life Technologies).
(2) Preparation of GM1-Containing Liposome
Using a mixed solution of chloroform/methanol (1:1) as a solvent, a mixed solution of 100 mM each of cholesterol and sphingomyelin (both manufactured by Sigma-Aldrich) was prepared. To this mixed solution, GM 1 (cat. #1061, manufactured by Matreya Co.) was dissolved to make a solution of 50 mM concentration. This lipid mixed solution was aliquoted into glass test tubes and stored at −20° C. until use, was melted before use, was mixed with chloroform/methanol mixture (1:1) and mixed, and then the solvent was removed by applying nitrogen gas to the suspension. The dried lipid mixture was resuspended in PBS to be a GM1 concentration of 2.5 mM, and frozen and thawed 5 times with liquid nitrogen. The lipid suspension was centrifuged at 15,000 rpm for 10 minutes and the precipitate was resuspended in PBS to be a GM1 concentration of 2.5 mM. Using an ultrasonic crusher (XL-2000, MISONIX Co., Ltd.) equipped with a microchip, ultrasonic treatment was repeated on ice for 10 seconds until the suspension became transparent, and GM1-containing liposome was prepared. Immediately prior to use, PBS was added and diluted to a GM 1 concentration of 75 μM.
(3) Preparation of Compound Solution
Compounds 1 to 133 and 142 to 267 were prepared as 10 mM and 2 mM solution in DMSO, respectively. And each solution was diluted to 75 μM or 15 μM with PBS immediately prior to use.
(4) GAβ-Dependent Amyloid Fibril Formation
To a 96-well microplate, 5 μl each of the 75 μM Aβ solution prepared above (1), the compound solution prepared in (3) or 0.75% DMSO was mixed and incubated at room temperature for 10 minutes. Then, 5 μl each of 750 μM GM1-containing liposome prepared in (2) was added to each well and incubated at 37° C. for 18 hours.
ThT (manufactured by Sigma-Aldrich) was adjusted to 5 μM using 50 mM glycine-NaOH buffer (pH 8.5). Immediately before measurement, 10 μl from each well of (4) was transferred to a 96-well black plate. 50 μl of 5 μM ThT solution was added from each injector to each well using a multi-plate reader (ARVO-HTS, manufactured by Perkin Elmer), and then the optimal fluorescence of ThT bound to amyloid fiber (excitation wavelength 430 nm, fluorescence wavelength 490 nm) was measured.
The fluorescence intensity of ThT indicates the degree of amyloid fibrils formation. By calculating the ratio of the ThT fluorescence intensity between addition of the compound and without addition of the compound, the inhibition rate against amyloid fibril formation by the compound was calculated.

[1] = inhibition rate against amyloid fibril formation, final concentration of the compound 25 μM, read-out: Inhibitory activity ABC evaluation
[2] = @25 μM, read-out: ThT Inhibitory activity (% inhibition)
[3] = inhibition rate against amyloid fibril formation, final concentration of the compound 25 μM

T1 sequence (P05067 672-711 limits assumed): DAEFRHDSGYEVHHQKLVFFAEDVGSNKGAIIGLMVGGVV

SMILES | inhibition at 25 µM [1] | further results
O=C(N[C@@H](CO)c1nc(-c2ccc(C(=O)C(F)(F)F)cc2)no1)c1ccccc1 [Compound 165, N-[(1S)-2-hydroxy-1-{3-[4-(2,2,2-trifluoroacetyl)phenyl]-1,2,4-oxadiazol-5-yl}ethyl] benzamide] | > 80% | –
COc1cccc2c(CC(=O)NCCc3nc(-c4c[nH]c5ccccc45)no3)c[nH]c12 [Compound 70, N-[2-{3-(1H-indol-3-yl)-1,2,4-oxadiazol-5-yl}ethyl]-2-(7-methoxy-1H-indol-3-yl) acetamide] | < 40% | –
O=C(CCc1nc(-c2ccc3c(c2)OCCO3)no1)N1CCc2ccccc2C1 [Compound 17, 3-{3-(2,3-dihydrobenzo[b][1,4]dioxin-6-yl)-1,2,4-oxadiazol-5-yl}-1-{3,4-dihydroisoquinolin-2(1H)-yl}propan-1-one] | 40 to 80% | –
Cl.O=C(N[C@@H](CO)c1nc(-c2ccc(C(F)(F)F)cn2)no1)c1ccc(F)cc1 [Compound 206, 4-fluoro-N-[(1S)-2-hydroxy-1-{3-[5-(trifluoromethyl)pyridin-2-yl]-1,2,4-oxadiazol-5-yl}ethyl]benzamide hydrochloride] | – | inhibition at 25 µM [2]: 55%; Inhibitory activity ABC evaluation [3]: B (40% or more and less than 80% were evaluated as B)
CN(Cc1cccc(F)c1)C(=O)CCc1nc(-c2ccc(O)cc2)no1 [Compound 14, N-(3-fluorobenzyl)-3-{3-(4-hydroxyphenyl)-1,2,4-oxadiazol-5-yl}-N-methylpropanamide] | < 40% | –
O=C(N[C@@H](CO)c1nc(-c2ccc(-n3cccn3)cc2)no1)c1ccccc1 [Compound 180] | < 40% | –
O=C(N[C@@H](CO)c1nc(-c2ccc(C(F)(F)F)cn2)no1)c1ccc(Cl)cc1 [Compound 205, 4-chloro-N-[(1S)-2-hydroxy-1-{3-[5-(trifluoromethyl)pyridin-2-yl]-1,2,4-oxadiazol-5-yl}ethyl]benzamide] | – | Inhibitory activity ABC evaluation [3]: B (40% or more and less than 80% were evaluated as B)
O=C(N[C@@H](CO)c1nc(-c2ccc(C(F)(F)F)cc2)no1)C1CC(=O)N(c2ccc(Cl)cc2)C1 (stereo partly drawn) [Compound 193, 1-(4-chlorophenyl)-N-[(1S)-2-hydroxy-1-{3-[4-(trifluoromethyl)phenyl]-1,2,4-oxadiazol-5-yl}ethyl]-5-oxopyrrolidine-3-carboxamide] | 40 to 80% | –
C[C@@H](O)[C@H](NC(=O)c1ccc(Cl)cc1)c1nc(-c2ccc(OC(F)(F)F)cc2)no1 [Compound 80, 4-chloro-N-((1S,2R)-2-hydroxy-1-[3-{4-(trifluoro-methoxy)phenyl}-1,2,4-oxadiazol-5-yl]propyl) benzamide] | > 80% | inhibition at 25 µM [2]: 80%
O=C(N[C@@H](CO)c1nc(-c2ccc(Br)cc2)no1)c1ccc(F)cc1 [Compound 163, N-[(1S)-1-[3-(4-bromophenyl)-1,2,4-oxadiazol-5-yl]-2-hydroxyethyl]-4-fluorobenzamide] | 40 to 80% | –
O=C(O)C[C@H](NC(=O)c1ccc(Cl)cc1)c1nc(-c2ccc(OC(F)(F)F)cc2)no1 [Compound 81, (S)-3-(4-chlorobenzamide)-3-{3-[4-(trifluoromethoxy)phenyl]-1,2,4-oxadiazol-5-yl}propanoic acid] | 40 to 80% | –
O=C(N[C@@H](CO)c1nc(-c2ccoc2Cl)no1)c1ccc(F)cc1 [Compound 255, N-[(1S)-1-[3-(2-chlorofuran-3-yl)-1,2,4-oxadiazol-5-yl]-2-hydroxyethyl]-4-fluorobenzamide] | 40 to 80% | –
O=C1CC(c2nnc(-c3ccc(OC(F)(F)F)cc3)o2)CN1c1ccc(Cl)cc1 (centres unmarked) [Compound 103, 1-(4-chlorophenyl)-4-{5-[4-(trifluoromethoxy)phenyl]-1,3,4-oxadiazol-2-yl}pyrrolidin-2-one] | 40 to 80% | –
O=C1CC(c2nc(-c3ccc(Cl)cc3)no2)CN1c1ccc(Cl)cc1 (centres unmarked) [Compound 59, 1-(4-chlorophenyl)-4-{3-(4-chlorophenyl)-1,2,4-oxadiazol-5-yl}pyrrolidin-2-one] | < 40% | –
O=C(N[C@@H](CO)c1nc(-c2ccc(OC(F)(F)F)cc2)no1)c1ccccc1 [Compound 92, (S)-N-(2-hydroxy-1-[3-{4-(tri-fluoromethoxy)phenyl}-1,2,4-oxadiazol-5-yl]ethyl)benzamide] | > 80% | inhibition at 5 µM (@5 μM, read-out: ThT Inhibitory activity (% inhibition)): 51%; inhibition at 25 µM [2]: 81%
COc1ccc2[nH]cc(-c3noc([C@H](CO)NC(=O)c4ccc(F)cc4)n3)c2c1 [Compound 261, 4-fluoro-N-[(1S)-2-hydroxy-1-[3-(5-methoxy-1H-indol-3-yl)-1,2,4-oxadiazol-5-yl]ethyl] benzamide] | 40 to 80% | –
O=C(N[C@@H](CO)c1nc(-c2ccc(C(F)(F)F)cc2)no1)c1ccc2[nH]nnc2c1 [Compound 238, N-[(1S)-2-hydroxy-1-{3-[4-(trifluoromethyl)phenyl]-1,2,4-oxadiazol-5-yl}ethyl]-1H-1,2,3-benzotriazole-5-carboxamide] | 40 to 80% | –
O=C(N[C@@H](CO)c1nc(-c2ccc(C(F)(F)F)cc2)no1)c1ccc(Cl)s1 [Compound 198, 5-chloro-N-[(1S)-2-hydroxy-1-{3-[4-(trifluoromethyl)phenyl]-1,2,4-oxadiazol-5-yl}ethyl]thiophene-2-carboxamide] | > 80% | –
N[C@@H](Cc1c[nH]c2ccccc12)C(=O)N[C@@H](CO)c1nc(-c2ccc(C(F)(F)F)cc2)no1 [Compound 241, (2S)-2-amino-N-[(1S)-2-hydroxy-1-{3-[4-(trifluoromethyl)phenyl]-1,2,4-oxadiazol-5-yl}ethyl]-3-(1H-indol-3-yl)propanamide] | < 40% | –
NC(=O)C[C@H](NC(=O)c1ccc(Cl)cc1)c1nc(-c2ccc(OC(F)(F)F)cc2)no1 [Compound 86, (S)-N-(3-amino-3-oxo-1-{3-[4-(trifluoromethoxy)phenyl]-1,2,4-oxadiazol-5-yl}propyl)-4-chlorobenzamide] | < 40% | –
O=C1CC(c2nc(-c3ccc(OCF)cc3)no2)CN1c1ccc(Cl)cc1 (centres unmarked) [Compound 53, 1-(4-chlorophenyl)-4-[3-{4-(fluoromethoxy)phenyl}-1,2,4-oxadiazol-5-yl]pyrrolidin-2-one] | 40 to 80% | –
O=C1CC(c2ncc(-c3ccc(OC(F)(F)F)cc3)[nH]2)CN1c1ccc(Cl)cc1 (centres unmarked) [Compound 124, 1-(4-chlorophenyl)-4-{5-[4-(trifluoromethoxy)phenyl]-1H-imidazol-2-yl}pyrrolidin-2-one] | < 40% | –
COc1ccc2nc(-c3noc([C@H](CO)NC(=O)c4ccc(F)cc4)n3)sc2c1 [Compound 235, 4-fluoro-N-[(1S)-2-hydroxy-1-[3-(6-methoxy-1,3-benzothiazol-2-yl)-1,2,4-oxadiazol-5-yl]ethyl]benzamide] | 40 to 80% | inhibition at 25 µM [2]: 63%
O=C(N[C@@H](CO)c1nc(-c2c[nH]c3ccccc23)no1)c1ccc(F)cc1 [Compound 211, 4-fluoro-N-[(1S)-2-hydroxy-1-[3-(1H-indol-3-yl)-1,2,4-oxadiazol-5-yl]ethyl]benzamide] | > 80% | inhibition at 25 µM [2]: 89%
O=C(N[C@@H](CO)c1nc(-c2ccc(C(F)(F)F)cc2)no1)c1ccc(N2CCOCC2)cc1 [Compound 200, N-[(1S)-2-hydroxy-1-{3-[4-(trifluoromethyl)phenyl]-1,2,4-oxadiazol-5-yl}ethyl]-4-(morpholin-4-yl) benzamide] | 40 to 80% | –
O=C(N[C@@H](CO)c1nc(-c2ccc3[nH]ccc3c2)no1)c1ccc(F)cc1 [Compound 175, 4-fluoro-N-[(1S)-2-hydroxy-1-[3-(1H-indol-5-yl)-1,2,4-oxadiazol-5-yl]ethyl] benzamide] | > 80% | –
